Earlier results, collected in patent US9925191B2, “Fumarate compounds, pharmaceutical compositions thereof, and methods of use” (priority 2015, dated 2018).

## COC(=O)/C=C/C(=O)OC [DMF, dimethylfumarate]
  aqueous solubility: poor aqueous solubility
